Data reported in patent US4213984A, “11-(Piperazino-acetyl)-5,11-di hydro-6H-pyrido[2,3-b][1,4]benzodiazepin-6-ones and salts thereof” (Boehringer Ingelheim GmbH, priority 1977, dated 1980).

Assays:
[1] = system: stress ulcers in rats; assay: inhibiting effect on the formation of stress ulcers in rats (Takagi and Okabe), peroral; assay type: in vivo; conditions: po, rat; for inhibition in vivo at 12.5 mg/kg: 12.5 mgm/kg, read-out: Ulcer inhibition in % (rat) after peroral administration of 12.5 mgm/kg; for inhibition in vivo at 25 mg/kg: 25 mgm/kg, read-out: Ulcer inhibition in % (rat) after peroral administration of 25 mgm/kg; for inhibition in vivo at 50 mg/kg: 50 mgm/kg, read-out: Ulcer inhibition in % (rat) after peroral administration of 50 mgm/kg
Description: (§1) The compounds were examined with regard to their inhibiting effect on the formation of stress ulcers in rats and their spasmolytic effect, related to atropine, with consideration of their acute toxicity.
The inhibiting effect on the formation of stress ulcers in rats was determined according to the method of K. Takagi and S. Okabe, Jap.Journ.Pharmac. 18,pp. 9 to 18 (1968). Fed female rats with a body weight between 220 and 260 gm were individually put into small wire cages and were subsequently kept vertically submerged in a water bath which was kept constant at a temperature of 23° C. for 16 hours, so that only the heads and the breastbones of the animals were above the water surface. The test compounds were administered perorally 5 to 10 minutes before. With each substance five animals were treated. 1 ml of a 0.9% physiological sodium chloride solution or 1 ml of a 1% tylose solution was administered to the control animals in the same way. After 18 hours the animals were killed by an overdose of ethyl chloride, the stomachs were excised, cut along the big curvature and spread on a cork plate. The evaluation was carried out according to the methods of Marazzi-Uberti and Turba, Med. Exp. 4, pp. 284 to 292 (1961), and Takagi and Okabe (supra)

[2] = acute toxicity after peroral administration to fasted white mice; assay type: in vivo; conditions: in vivo, po, mouse, observation period 14 days, read-out: LD50 peroral mgm/kg mouse
Description: (§2) The acute toxicity was determined after peroral administration of the test substance to fasted white mice with a body weight of 18 to 20 gm. The observation period was 14 days. For each dosage a group of six mice was used.

[3] = system: white mice; assay: as above; assay type: in vivo; conditions: mouse, six mice per dosage, at the LD50 dose
Description: as §2

[4] = system: guinea pig colon; assay: spasmolytic effect in vitro on the guinea pig colon, acetylcholine-induced spasms, compared with atropinesulfate; conditions: acetylcholine spasm, relative to Atropine = 1
Description: as §1
The spasmolytic effect was determined in vitro on the guinea pig colon, using the experimental arrangement according to R. Magnus, Pflugers Archiv, 102, pp. 123 (1904). Acetylcholine was taken to induce spasms, the substance for comparison was atropinesulfate. The spasticum was administered one minute before the administration of the spasmolytic substance, and the spasmolytic was allowed to take effect for 1 minute.

Row | Structure (SMILES) | inhibition in vivo at 12.5 mg/kg [1] | inhibition in vivo at 25 mg/kg [1] | inhibition in vivo at 50 mg/kg [1] | LD50 at 336 h [2] | number of animals that died [3] | Spasmolysis (acetylcholine) in respect to Atropine = 1 [4]
1 | CN1C(=O)c2ccccc2N(C(=O)CN2CCN(Cc3ccc4c(c3)OCO4)CC2)c2ncccc21 [G, 5,11-Dihydro-5-methyl-11-{[4-(3,4methylenedioxy-benzyl)-1-piperazinyl]acetyl}-6H-pyrido[2,3-b][1,4]benzodiazepin-6-one] | 21% | 58% | 90% | > 1500 mg/kg | +++ (means, 2 of 6 animals died) | 1/290
2 | CC(C)=CCN1CCN(CC(=O)N2c3ccccc3C(=O)Nc3cccnc32)CC1.Cl.Cl [B, 5,11-Dihydro-11-{[4-(3-methyl-but-2-enyl)-1-piperazinyl]acetyl}-6H-pyrido[2,3-b][1,4]benzodiazepin-6-one dihydrochloride] | 52% | 63% | 84% | > 1500 mg/kg | + (means, 0 of 6 animals died) | 1/200
3 | C=C(C)CN1CCN(CC(=O)N2c3ccccc3C(=O)Nc3cccnc32)CC1 [A, 5,11-Dihydro-11-{[4-(2-methyl-allyl)-1-piperazinyl]acetyl}-6H-pyrido[2,3-b][1,4]benzodiazepin-6-one] | 32% | 52% | 90% | > 3000 mg/kg | + (means, 0 of 6 animals died) | 1/330
4 | CC(C)(C)CN1CCN(CC(=O)N2c3ccccc3C(=O)Nc3cccnc32)CC1 [C, 5,11-Dihydro-11-{[4-(2,2-dimethyl-propyl)-1-piperazinyl]acetyl}-6H-pyrido[2,3-b][1,4]benzodiazepin-6-one] | 39% | 61% | 95% | > 1500 mg/kg | + (means, 0 of 6 animals died) | 1/70
5 | O=C1Nc2cccnc2N(C(=O)CN2CCN(CC34CC5CC(CC(C5)C3)C4)CC2)c2ccccc21 [D, 11-{[4-(1-Adamantyl-methyl)-1-piperazinyl]acetyl}-5,11-dihydro-6-H-pyrido[2,3-b][1,4]benzodiazepin-6-one] | 26% | 47% | 79% | > 3000 mg/kg | + (means, 0 of 6 animals died) | 1/86
6 | O=C1Nc2cccnc2N(C(=O)CN2CCN(Cc3ccc4c(c3)OCO4)CC2)c2ccccc21 [E, 5,11-Dihydro-11-{[4-(3,4-methylenedioxy-benzyl)-1-piperazinyl]-acetyl}-6H-pyrido[2,3-b][1,4]benzodiazepin-6-one] | 37% | 73% | 95% | > 3000 mg/kg | +++ (means, 2 of 6 animals died) | 1/78
7 | O=C1Nc2cccnc2N(C(=O)CN2CCN(CC=Cc3ccccc3)CC2)c2ccccc21 [H, 11-[(4-Cinnamyl-1-piperazinyl)acetyl]-5,11-dihydro-6H-pyrido-[2,3-b][1,4]benzodiazepin-6-one] | 53% | 69% | 95% | ~3000 mg/kg | ++++ (means, 4 of 6 animals died) | 1/700
8 | CC1CN(C)CCN1CC(=O)N1c2ccccc2C(=O)Nc2cccnc21.Cl (stereo not drawn) [F, 5,11-Dihydro-11-[(2,4-dimethyl-1-piperazinyl)acetyl]-6H-pyrido-[2,3-b][1,4]benzodiazepin-6-one-hydrochloride] | 84% | 90% | 95% | > 3000 mg/kg | ++ (means, 1 of 6 animals died) | 1/130
